# Values quoted from earlier work in patent US8293900B2, “Acylated spiropiperidine derivatives as melanocortin-4 receptor modulators” (Merck Sharp & Dohme Corp, priority 2005, dated 2012).
# Columns and labels:
# [1] = oral route
# [2] = injected intramuscularly or subcutaneously, males with psychogenic erectile dysfunction
substance,measurement,setting,value
Ac-Nle-c[Asp-His-DPhe-Arg-Trp-Lys]-NH2 [MT-II],absorption into the systemic circulation,[1],not absorbed into the systemic circulation
same,response rate,[2],75%
